Data set [1] has as its system PC12 cells. Put plainly: PC12 cell neuronal differentiation test. Type of data set: cell-based, rat. Particulars: serum-free medium, 50 ng/ml mNGF or 100 ng/ml hproNGF-A or hproNGF-B, five-day incubation.
In data set [2] the test system is PC12 cells. Put plainly: Viability test on PC12 cells in suspension after serum deprivation. Conditions: 48 hours of culture, 50 ng/ml mNGF or 100 ng/ml hproNGF-A or hproNGF-B. Type of data set: cell-based, rat. As to the method:
FIG. 3B is a histogram showing the results from the viability test performed on PC12 cells in suspension after addition of the factors listed under A above.
PC12 cells were cultured in RPMI 1640 culture medium supplemented with 10% horse serum and 5% calf serum in a humidified atmosphere with 5% CO2 at 37° C. The exponentially growing cells were then seeded on 6-well plates containing poly-L-Lysine, to allow adherence of the cells to the bottom of the well.

The test system of data set [3] is hippocampal cells of the dentate gyrus (granule layer and hilus). Put plainly: Hoechst-positive cell count in hippocampal dentate gyrus after intranasal administration. Type of data set: in vivo, rat. Conditions: control (healthy) rats, intranasal once a day for four days. As to the method:
The broken lines show regions of the Dentate Gyrus (DG-H and DG-Granule Layer) where cell counts were performed, shown in the graphs in FIG. 4B.
To check whether the opposite nature of the two different hproNGF isoforms could affect the number of hippocampal cells and whether the intranasal administration of proNGF could have an effect on diabetes-induced neuronal loss, Hoechst-positive cells were analysed by confocal microscopy in both the cell layers of the hippocampal dentate gyrus, the granule layer (GL) and the hilus (HL) (as shown in FIG. 4A). The rats were deeply anesthetized and transcardially perfused with 0.1 M phosphate buffer followed by 4% paraformaldehyde fixative in 0.1 M phosphate buffer. The brains were removed and cryoprotected with 30% sucrose in phosphate buffer. 40 μm-thick coronal sections of both hemispheres. ranging −2.40 /−3.72 mm from the bregma according to the Paxinos Rat Brain Atlas, were cut on a cryostat and then processed. The brain sections were pre-incubated for 2 hours at room temperature (RT) with PBS containing 10% donkey serum (v/v), 1% BSA (w/v) and 0.3% Triton X-100 (v/v). After washing with PBS, the sections were incubated (2 h, RT) with specific secondary antibodies. Subsequently, the sections were rinsed three times in PBS and incubated for 10 minutes with Hoechst dye for specific staining of the nuclei. […]

For data set [4], the system named is hippocampal dentate gyrus neurogenesis. Put plainly: Hippocampal neurogenesis (BrdU, DCX, NeuN confocal microscopy) after intranasal administration. It counts as in vivo, rat. From the text:
The box-plot graphs enclosed by a broken line show the results from the quantitative analyses in healthy rats (A) and diabetic rats (B) of cells that have incorporated BrdU and are at the same time positive for Doublecortin (DCX) (graphs enclosed by a dashed line box) or NeuN (graphs enclosed by a dotted line box). Median±interquartile, n=4 animals per experimental group.
It is also known that diabetic encephalopathy impairs the hippocampal neurogenesis process. In order to assess the effects induced by exogenous administration of the two hproNGF peptide isoforms on hippocampal neurogenesis, the hproNGF-A peptide for use according to the invention and the known hproNGF-B peptide were administered to healthy and diabetic rats.
In order to assess the effects of the treatments on dentate gyrus neurogenesis, at the time of diabetes induction, rats were inoculated with bromodeoxyuridine (BrdU), which intercalates into newly formed DNA, specifically labelling cells proliferating at the time of inoculation. Subsequently, a confocal microscopy analysis was performed by labelling with anti-BrdU antibodies and specific antibodies to detect the presence of immature neurons (antibodies to doublecortin, DCX) or mature neurons (antibodies to NeuN).

For data set [5], the system named is hippocampal synaptic plasticity (DG-LTP). Put plainly: Long-term potentiation (LTP) in dentate gyrus of hippocampal slices after intranasal administration. Particulars: intranasal once a day for four days, 60 minutes after HFS.
In a further data set the test system is extracellular proteases. Put plainly: Permanence in conditioned culture medium of stimulated PC12 cells (Western blot), resistance to extracellular proteases. It counts as in vitro ADME. Conditions: conditioned medium of rat PC12 cells, sampled at 0, 4, 8 and 24 hours post-stimulation. As to the method:
(§1) (A) Representative photomicrograph of the results from the Western blot analysis performed on conditioned culture media of rat PC12 cells stimulated with hproNGF-A (upper panel) or mNGF (lower panel) for 24 hours. The samples examined were collected at time 0 and 4, 8 and 24 hours post-stimulation. (B) Representative photomicrographs of the immunolocalization of the tyrosine hydroxylase enzyme on brain tissue (locus coeruleus) sections taken from rats after intranasal administration of proNGFA or mNGF.
In order to assess the resistance of hproNGF-A and mature NGF to the action of extracellular proteases, rat pheochromocytoma cells (PC12) were stimulated with either of the two peptides. Samples collected from conditioned cell culture media at successive times (time zero; 4, 8 and 24 hours post-stimulation) were subjected to Western blot assay in order to verify the permanence of hproNGF-A and mNGF in the culture medium.
(In general: Immunoblotting shows a protein as a band on a membrane.)

The subject of data set [6] is noradrenergic fibres in the locus coeruleus. Put plainly: Tyrosine hydroxylase immunolocalization in locus coeruleus after intranasal administration (central regulation of sympathetic activity). Conditions: adult rats. Type of data set: in vivo, rat. As to the method: as §1
The present inventors also carried out experiments aimed at testing the effects of the action of NGF and the proNGF-A peptide on the central regulation of the neuronal sympathetic activity. In short, the NGF or proNGF-A peptides were administered intranasally to the brain parenchyma of adult rats. Subsequently, the noradrenergic neurons located in the locus coeruleus, a brain region responsible for the central control of the functionality of the sympathetic nervous system, were analysed by immunolabelling on thin slices for tyrosine hydroxylase enzyme. Tyrosine hydroxylase enzyme represents an indirect measurement of the production of the noradrenaline neurotransmitter in neurons of certain brain areas. […]

Here are results for two substances from patent US20210047380A1, “A NEUROTROPHIC PEPTIDE FOR THE THERAPEUTIC TREATMENT OF NEURODEGENERATIVE AND/OR INFLAMMATORY DISEASES” (CONSIGLIO NAZIONALE DELLE RICERCHE, priority 2018, published 2021).

“hproNGF-B: already known human proNGF variant (accession number NM_002506.2), precursor of mature NGF, 221 amino acids long”: the “neuronal differentiation of PC12 cells (neurites)” value with PC12 cells [1] is “showed evident signs of suffering”. Besides, the “percentage of living cells” value with PC12 cells [2] is recorded as “induces a decrease in the percentage of living cells”. Also, the “number of cells in hilus and granule layer of dentate gyrus compared to saline-treated rats” value in data set [3] was “decreased significantly”. Moreover, in data set [4] (diabetic rats), the “diabetes-induced alteration in the number of BrdU+-cells” value is “no influence” and the “percentage of BrdU+-cells expressing DCX” value was “no influence”. For the same substance, in data set [4] (healthy rats), the “number of BrdU-immunopositive cells” value is on record as “significant reduction”; the “percentage of cells simultaneously immunopositive for BrdU and DCX” value is “significant reduction”. In data set [5] (control groups (healthy animals)), the “extent of DG-LTP compared to saline-treated group” value is 28%. Also, in data set [5] (diabetic rats (streptozotocin)), the “DG-LTP compared to saline-treated diabetic rats (improvement of streptozotocin-induced decrease)” value is reported as “not different from that measured in saline-treated diabetic rats”.

“mNGF: mature Nerve Growth Factor (NGF) peptide, neurotrophin used as comparator”: the “time the peptide remains in the culture medium after the stimulus” value in the data set with extracellular proteases is “not more than 8 hours”. In addition, the “arborization (sprouting) of noradrenergic fibres containing tyrosine hydroxylase in the locus coeruleus” value in data set [6] is “causes arborization (sprouting) of the noradrenergic fibres”. In the data set on PC12 cells [1], the “neuronal differentiation of PC12 cells (neurites)” value is recorded as “exhibited the characteristic extensions (neurites)”. In the data set with PC12 cells [2], the “percentage of living cells” value was “maintain a significant proportion of living cells”.
